e = 2'-O-(2-methoxyethyl) (MOE); d = 2'-deoxy (DNA)
How the values were obtained:
Format in all cases: cell-based
EGFR = assay: Microscopy of EGF-induced internalization and recycling of EGFR; settings: with EGF, 16 hours
Protocol: Microscopy studies were also carried out to evaluate the EGF-induced internalization and recycling of EGFR in the presence of Cy3-labeled PS-ASO, compound no. 446654. Cells were treated with EGF alone or EGF and compound no. 446654 for 16 hours. The cells were then either immediately stained and imaged, or the EGF and, if applicable, compound no. 446654 were removed for two hours prior to staining and imaging. Staining and imaging were performed as described above. […] Two hours after removal of EGF, cells show EGFR staining primarily in the plasma membrane. […] Two hours after removal of EGF and/or compound no. 446654, the Cy3 signal remained diffuse throughout the cytoplasm, while EGFR staining primarily localized to the plasma membrane.

A431 cells = assay: Immunofluorescent microscopy co-localization
Protocol: Immunofluorescent staining was used to visualize clathrin, EGFR, and PS-ASOs in A431 cells. Compound no. 446654 has the sequence and structure Cy3-^mCesTesGes^mCesTesAdsGds^mCdsTds^mCdsTdsGdsGdsAdsTesTesTesGesAe (SEQ ID NO: 10). Cells were incubated with FITC labeled epidermal growth factor (EGF) or unlabeled EGF and compound no. 446654 for 30 minutes, then fixed with 4% paraformaldehyde for 20 minutes at room temperature and permeabilized with 0.05% saponin (Sigma) in PBS for 5 minutes. Cells were treated with blocking buffer (1 mg/mL BSA in PBS) for 30 minutes and then incubated with primary antibodies at room temperature for 2-4 hours or at 4° C. overnight. Primary antibodies used were ab30 (Abcam) for EGFR, ab21679 (Abcam) for clathrin, and antibody 610456 (BD Bioscience) for early endosome antigen 1 (EEA1). After three washes with PBS, cells were fluorescently labeled with secondary antibodies at room temperature for 1-2 hours. Secondary antibodies used were anti-mouse conjugated to AF488 (ab150077, Abcam) or AF647 (ab150079, Abcam), and anti-rabbit conjugated to AF488 (ab150113, Abcam) or AF647 (ab150115, Abcam). Nuclei were labeled with Hoechst 33342. Cells were then visualized with a confocal microscope (Olympus FV-1000), and single slices and Z-stack images were obtained. Co-localization between PS-ASOs and different organelles was analyzed using FV10-ASW 3.0 viewer software.

HEK cells = assay: Uptake by flow cytometry, HEK cells
Protocol: Uptake of compound no. 446654 by A431 cells was measured by flow cytometry. A431 cells were treated with a growth factor for 4 hours prior to incubation with compound no. 446654 for 2 hours. Results are presented in the tables below as relative fluorescence units (RFU) and represent an average of three independent experiments.
Uptake of compound no. 446654 was measured via flow cytometry, as in Example 8, in HEK cells overexpressing EGFR and wild type HEK cells.

Malat1 RNA = assay: Antisense activity by RT-qPCR, Malat1, HEK cells
Protocol: A431 cells were grown at 10,000 cells per well and pre-treated with a variety of growth factors to determine if the addition of exogenous growth factors affects antisense activity or uptake of modified antisense oligonucleotides in a cell. The growth factors used were EGF, insulin growth factor (IGF), transforming growth factor (TGF), […] (VEGF), hepatocyte growth factor (HGF), platelet growth factor (PGF) and fibroblasts growth factor (FGF). To test antisense activity, cells were treated for 4 hours with a growth factor or vehicle alone, and then treated with compound no. 25690 (complementary to Drosha), compound no. 395254 (complementary to Malat1), or vehicle alone. RNA was isolated from the cells and Drosha or Malat1 RNA levels were measured by RT-qPCR. Human primer probe set 13816 (forward sequence […], designated herein as SEQ ID NO: 3; reverse sequence […], designated herein as SEQ ID NO: 4; probe sequence […], designated herein as SEQ ID NO: 5) was used to measure Drosha mRNA levels and primer probe set RTS2736 (forward sequence […], designated herein as SEQ ID NO: 6; reverse sequence […], designated herein as SEQ ID NO: 7; probe sequence TGCCACATCGCCACCCCGT, designated herein as SEQ ID NO: 8) was used to measure Malat1 RNA levels. Drosha and Malat1 RNA levels were normalized to total RNA content, as measured by RIBOGREEN®. Results are presented in the tables below as normalized RNA levels, relative to untreated control cells.
HEK cells were transfected with 2 μg plasmid encoding EGFR using Lipofectamine 3000 (ThermoFisher) at 2 μg/million cells. Cells were grown for 2 weeks in G418 selection media to select clones overexpressing EGFR. Cells were treated with compound no. 395254 for 16 hours prior to RT-qPCR analysis for Malat1, as in Example 8. The results, shown in the table below, indicate that antisense activity was increased in cells with higher expression levels of EGFR.

[1] = FITC-EGF, 30 minutes, EGFR and clathrin antibodies
[2] = FITC-EGF, EGFR and EEA1 antibodies
[3] = unlabeled EGF, 30 minutes, EGFR and clathrin antibodies
[4] = unlabeled EGF, EGFR and EEA1 antibodies

Substance: Cy3-^mCesTesGes^mCesTesAdsGds^mCdsTds^mCdsTdsGdsGdsAdsTesTesTesGesAe (antisense CTGCTAGCCTCTGGATTTGA; listed as DNA, chemistry not fully specified) [compound 446654, Cy3-labeled PS-ASO]
- distribution of the ASO in cells (EGFR): distributed throughout the cytoplasm
- co-localization with EGF (A431 cells; [1]): observed within the cytoplasm and at the cell surface
- co-localization with clathrin (A431 cells; [1]): observed at the cell surface
- co-localization with EEA1 (A431 cells; [2]): observed within the cytoplasm
- co-localization with EGF (A431 cells; [2]): observed both at the cell surface and within the cytoplasm
- co-localization with EGFR (A431 cells; [3]): observed both at the cell surface and within the cytoplasm
- co-localization with clathrin (A431 cells; [3]): observed at the cell surface
- co-localization with EEA1 (A431 cells; [4]): observed in the cytoplasm and within the nucleus
- co-localization with EGFR (A431 cells; [4]): observed at the cell surface, in the cytoplasm, and within the nucleus
- RFU (HEK cells; 0.25 μM, Overexpressing EGFR): 123 RFU
- RFU (HEK cells; 0.25 μM, Wild type HEK cells): 109 RFU
- RFU (HEK cells; 0.5 μM, Overexpressing EGFR): 163 RFU
- RFU (HEK cells; 0.5 μM, Wild type HEK cells): 143 RFU
- RFU (HEK cells; 1 μM, Overexpressing EGFR): 255 RFU
- RFU (HEK cells; 1 μM, Wild type HEK cells): 287 RFU
- uptake, effect of varying EGFR expression levels (HEK cells; HEK cells overexpressing EGFR vs wild type): did not affect

Substance: GGCATATGCAGATAATGTTC (sugars from the 5' end e5 d10 e5, all phosphorothioate, methylation of C not given here) [compound 395254]
- Malat1 RNA (% Control) (Malat1 RNA; 1 nM, HEK cells overexpressing EGFR): 100 % control
- Malat1 RNA (% Control) (Malat1 RNA; 1 nM, Wild type HEK cells): 100 % control
- Malat1 RNA (% Control) (Malat1 RNA; 2 nM, HEK cells overexpressing EGFR): 77.8 % control
- Malat1 RNA (% Control) (Malat1 RNA; 2 nM, Wild type HEK cells): 98.3 % control
- Malat1 RNA (% Control) (Malat1 RNA; 3.9 nM, HEK cells overexpressing EGFR): 73.4 % control
- Malat1 RNA (% Control) (Malat1 RNA; 3.9 nM, Wild type HEK cells): 96 % control
- Malat1 RNA (% Control) (Malat1 RNA; 7.8 nM, HEK cells overexpressing EGFR): 73.3 % control
- Malat1 RNA (% Control) (Malat1 RNA; 7.8 nM, Wild type HEK cells): 87.5 % control
- Malat1 RNA (% Control) (Malat1 RNA; 15.6 nM, HEK cells overexpressing EGFR): 68.1 % control
- Malat1 RNA (% Control) (Malat1 RNA; 15.6 nM, Wild type HEK cells): 81.4 % control
- Malat1 RNA (% Control) (Malat1 RNA; 31.3 nM, HEK cells overexpressing EGFR): 62.2 % control
- Malat1 RNA (% Control) (Malat1 RNA; 31.3 nM, Wild type HEK cells): 86.2 % control
- Malat1 RNA (% Control) (Malat1 RNA; 62.5 nM, HEK cells overexpressing EGFR): 62.4 % control
- Malat1 RNA (% Control) (Malat1 RNA; 62.5 nM, Wild type HEK cells): 95.4 % control
- Malat1 RNA (% Control) (Malat1 RNA; 125 nM, HEK cells overexpressing EGFR): 55.9 % control
- Malat1 RNA (% Control) (Malat1 RNA; 125 nM, Wild type HEK cells): 82.7 % control
- Malat1 RNA (% Control) (Malat1 RNA; 250 nM, HEK cells overexpressing EGFR): 52.9 % control
- Malat1 RNA (% Control) (Malat1 RNA; 250 nM, Wild type HEK cells): 72.1 % control
- Malat1 RNA (% Control) (Malat1 RNA; 1000 nM, HEK cells overexpressing EGFR): 36.5 % control
- Malat1 RNA (% Control) (Malat1 RNA; 1000 nM, Wild type HEK cells): 47.1 % control
- Malat1 RNA (% Control) (Malat1 RNA; 2000 nM, HEK cells overexpressing EGFR): 35.3 % control
- Malat1 RNA (% Control) (Malat1 RNA; 2000 nM, Wild type HEK cells): 28.5 % control
- Malat1 RNA (% Control) (Malat1 RNA; 5000 nM (so in the source), HEK cells overexpressing EGFR): 44.1 % control
- Malat1 RNA (% Control) (Malat1 RNA; 5000 nM (so in the source), Wild type HEK cells): 54.8 % control
- antisense activity in cells with higher expression levels of EGFR (Malat1 RNA; 16 hours): increased
